Data from US11229707B2, “Promoting immune responses” (National Institute of Biological Sciences, Beijing, priority 2018, dated 2022).
Like-named read-outs stand apart in the source and are kept apart here.

How the values were obtained:
[1] = biological target: alpha-kinase 1 (ALPK1) (Homo sapiens, UniProt Q96QP1); assay: ALPK1 activation (kinase domain phosphorylation of TIFA); type: biochemical
[2] = tested on: innate immune responses in mice; assay: Mouse dorsal air pouch model of acute inflammation (neutrophil recruitment, multiplex immunoassay for 36 cytokines); type: in vivo; conditions: for proinflammatory cytokines and chemokines in air pouches (IL-6, TNFα, IP-10, MCP-1/3, IFNγ, GM-CSF, MIP-1α and β, RANTES): air-pouch washes, compared with saline control; for neutrophil recruitment into the air pouch: injection into air pouch; for level of GRO-α/KC/CXCL1, IP-10 and MCP-1 in the sera: sera of injected mice
From the text: To investigate whether ADP-Hep alone could stimulate innate immune responses in vivo, a mouse dorsal air pouch model established to assess acute inflammation was employed (Gaudet et al. Science 348, 1251-1255 (2015).
We then performed a multiplex immunoassay for 36 cytokines in both the air-pouch washes and the sera of injected mice. […] Thus, ADP-Hep but not HBP alone can potently activate innate immune responses in mice.
To confirm that 1-ADP-heptoses and 1-ADP-heptose-7-phosphates can stimulate innate immune responses in vivo, a mouse dorsal air pouch model established to assess acute inflammation was employed (Gaudet, et al. Science 348, 1251-1255 (2015).
Injection of 1-ADP-heptoses and 1-ADP-heptose-7-phosphates into the air pouch induces neutrophil recruitment into the pouch. […] 1-ADP-heptoses and 1-ADP-heptose-7-phosphates also increase the level of keratinocyte-derived chemokine (GRO-a/KC/CXCL1), IP-10 and MCP-1 in the sera.

[3] = biological target: ALPK1 N-terminal domain (NTD) (Homo sapiens, UniProt Q96QP1); assay: Direct binding to ALPK1 N-terminal domain
Chain of ALPK1 N-terminal domain (NTD) (Q96QP1 1-473 limits assumed): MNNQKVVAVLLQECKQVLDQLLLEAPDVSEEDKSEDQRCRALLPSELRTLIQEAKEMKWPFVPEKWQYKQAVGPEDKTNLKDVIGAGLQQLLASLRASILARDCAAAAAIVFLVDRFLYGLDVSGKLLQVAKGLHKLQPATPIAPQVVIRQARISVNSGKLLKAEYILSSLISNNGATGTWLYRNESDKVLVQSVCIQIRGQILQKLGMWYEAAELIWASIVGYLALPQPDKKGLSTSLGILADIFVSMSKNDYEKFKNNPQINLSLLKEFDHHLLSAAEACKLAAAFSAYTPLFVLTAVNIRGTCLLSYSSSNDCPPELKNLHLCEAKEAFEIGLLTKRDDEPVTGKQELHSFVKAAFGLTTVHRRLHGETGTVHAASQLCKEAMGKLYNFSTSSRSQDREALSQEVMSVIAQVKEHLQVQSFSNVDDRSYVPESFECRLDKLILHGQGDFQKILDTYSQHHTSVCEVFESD

[4] = tested on: B16-OVA melanoma cells; assay: B16-OVA tumor growth, posttumor intratumor treatment; type: in vivo, C57BL/6N mice; conditions: 0.5 mg/mouse intratumor injection on day 8, 11, 14, 17
Procedure: FIG. 1D and FIG. 1E. […] C57BL/6N mice (n=6 mice per group) were injected subcutaneously with 2×10^5 B16-OVA melanoma cells on day 0. ADP-heptose (0.5 mg/mouse) was administered on day 8, 11, 14, and 17 after tumor inoculation by intratumor injection. Tumor volume (D) and tumor weight (E).

[5] = tested on: THP-1 and 293T cells; assay: Host cytosol entry, NF-kB activation and cytokine induction in THP-1 and 293T cells; conditions: for cytokines induction (such as interleukin-8): THP-1 and 293T cells, compound added on its own
[6] = tested on: TIFA; assay: TIFA phosphorylation in 293T cells stably expressing EGFP-TIFA, anti-pT9-TIFA immunoblot; type: cell-based; conditions: 5 μM for 5 hours
Procedure: FIG. 1B. […] 293T cells stably expressing EGFP-TIFA were treated with ADP-heptose analogs (5 μM) for 5 hours, and analyzed by anti-pT9-TIFA immunoblot.

[7] = tested on: ovalbumin (OVA)-specific IgG; assay: Adjuvant activity in vivo: OVA immunization, serum OVA-specific IgG by ELISA; conditions: C57BL/6N mice, intramuscular, 10 μg OVA mixed with 0.5 mg/mouse; after 21 days
Procedure: FIG. 1C. […] C57BL/6N mice (8 mice per group) were immunized intramuscularly with 10 μg OVA mixed with PBS, alum (2 mg/mouse), or ADP-heptose (0.5 mg/mouse). After 21 days, serum titers of OVA-specific IgG were measured by ELISA.

[8] = tested on: MC38 colorectal adenocarcinoma cells; assay: MC38 tumor growth, posttumor treatment with checkpoint blockade; type: in vivo, C57BL/6N mice; conditions: 0.5 mg/mouse intratumor combined with anti-PD-1 antibody 40 ug/mouse intraperitoneal, day 13-28
Procedure: FIG. 1F. […] C57BL/6N mice (n=6 mice per group) were injected subcutaneously with 2×10^5 MC38 colorectal adenocarcinoma cells on day 0. ADP-heptose (0.5 mg/mouse, intratumor injection) and anti-PD-1 antibody (40 ug/mouse, intraperitoneal injection) was administered on day 13, 16, 19, 22, 25, and 28 after tumor inoculation.

[9] = tested on: NF-κB in 293T cells; assay: NF-κB activation in 293T cells, luciferase reporter activity; type: cell-based
[10] = tested on: THP-1 and 293T cells

Chain of alpha-kinase 1 (ALPK1) (Q96QP1 whole entry, the tested form may be a part): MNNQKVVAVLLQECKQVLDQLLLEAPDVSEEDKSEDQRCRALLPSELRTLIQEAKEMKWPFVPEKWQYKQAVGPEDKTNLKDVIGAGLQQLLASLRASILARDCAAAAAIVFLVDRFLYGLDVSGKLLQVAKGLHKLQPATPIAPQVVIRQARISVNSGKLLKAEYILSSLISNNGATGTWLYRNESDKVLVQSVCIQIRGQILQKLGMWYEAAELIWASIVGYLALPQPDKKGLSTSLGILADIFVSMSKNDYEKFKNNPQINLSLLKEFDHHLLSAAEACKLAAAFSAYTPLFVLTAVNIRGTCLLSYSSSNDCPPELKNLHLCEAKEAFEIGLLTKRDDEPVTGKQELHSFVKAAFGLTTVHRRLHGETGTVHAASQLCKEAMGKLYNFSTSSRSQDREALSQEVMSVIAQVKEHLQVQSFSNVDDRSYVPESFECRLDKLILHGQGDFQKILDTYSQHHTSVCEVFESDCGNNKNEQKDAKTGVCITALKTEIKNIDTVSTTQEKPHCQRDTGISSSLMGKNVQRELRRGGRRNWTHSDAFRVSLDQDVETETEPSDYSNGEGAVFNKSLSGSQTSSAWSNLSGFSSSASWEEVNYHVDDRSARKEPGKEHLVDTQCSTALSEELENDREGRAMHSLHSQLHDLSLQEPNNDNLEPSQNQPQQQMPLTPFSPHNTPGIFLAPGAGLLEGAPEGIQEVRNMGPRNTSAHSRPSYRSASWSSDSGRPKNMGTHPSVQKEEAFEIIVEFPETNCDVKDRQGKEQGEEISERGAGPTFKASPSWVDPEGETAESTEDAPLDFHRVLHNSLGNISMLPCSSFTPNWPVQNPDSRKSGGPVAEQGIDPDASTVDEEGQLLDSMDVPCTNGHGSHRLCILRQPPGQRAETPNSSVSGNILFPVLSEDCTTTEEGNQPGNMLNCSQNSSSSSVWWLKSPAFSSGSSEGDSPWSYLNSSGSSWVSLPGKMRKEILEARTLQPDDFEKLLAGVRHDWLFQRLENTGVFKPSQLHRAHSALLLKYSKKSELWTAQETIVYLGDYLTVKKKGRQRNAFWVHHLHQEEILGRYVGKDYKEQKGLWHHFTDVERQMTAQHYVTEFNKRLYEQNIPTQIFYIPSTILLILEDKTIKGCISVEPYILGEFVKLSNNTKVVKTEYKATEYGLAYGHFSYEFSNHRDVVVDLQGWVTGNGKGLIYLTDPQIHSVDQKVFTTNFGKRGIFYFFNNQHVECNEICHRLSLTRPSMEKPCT

Q: Nc1ncnc2c1ncn2C1OC(COP(=O)(O)OP(=O)(O)OC2OC(C(O)COP(=O)(O)O)C(O)C(O)C2O)C(O)C1O (stereo not shown) [ADP-Heptose 7-P] was tested. Which ALPK1 activation [1] did it give?
A: ALPK1 activation-competent

Q: For Nc1ncnc2c1ncn2[C@@H]1O[C@H](COP(=O)(O)OP(=O)(O)O[C@@H]2O[C@H]([C@@H](O)CO)[C@@H](O)[C@H](O)[C@@H]2O)[C@@H](O)[C@H]1O [ADP-LD-Hep], which “proinflammatory cytokines and chemokines in air pouches (IL-6, TNFα, IP-10, MCP-1/3, IFNγ, GM-CSF, MIP-1α and β, RANTES)” value [2] is on record?
A: highly elevated

Q: What about the “neutrophil recruitment into the air pouch” value [2] of the same compound?
A: induced massive neutrophil recruitment into the pouch

Q: What about the “level of GRO-α/KC/CXCL1, IP-10 and MCP-1 in the sera” value [2] of the same compound?
A: increased the level

Q: Which ALPK1 activation [1] does the source give for Nc1ncnc2c1ncn2[C@@H]1O[C@H](COP(=O)(O)OP(=O)(O)O[C@@H]2O[C@H]([C@H](O)CO)[C@@H](O)[C@H](O)[C@@H]2O)[C@@H](O)[C@H]1O [ADP-heptose, 1-ADP-β-D-manno-Heptose] here?
A: stimulates the NTD-bound C-terminal kinase domain to phosphorylate TIFA and induce its oligomerization

Q: What about the “direct binding to ALPK1 N-terminal domain” value [3] of the same compound?
A: directly binds

Q: And the “inflammatory responses in mice after injection” value ([2]; mice, Alpk1-dependent)?
A: induces robust inflammatory responses in mice

Q: What about the “B16-OVA tumor growth (tumor volume, tumor weight)” value [4] of the same compound?
A: Inhibition of B16-OVA tumor growth

Q: What about the “cytokines induction (such as interleukin-8)” value [5] of the same compound?
A: cytokines induction

Q: What about the “entry into host cytosol on its own” value ([5]; host cells) of the same compound?
A: could enter host cytosol on its own

Q: And the “TIFA phosphorylation (anti-pT9-TIFA immunoblot)” value (“TIFA phosphorylation” for short) [6]?
A: induced TIFA phosphorylation

Q: And the “serum ovalbumin (OVA)-specific IgG production (adjuvant activity)” value [7]?
A: exhibited adjuvant activity in vivo to elevate the serum ovalbumin (OVA)-specific IgG production

Q: What about the MC38 tumor growth [8] of the same compound?
A: Inhibition of MC38 tumor growth

Q: What about the “NF-κB activation (luciferase reporter activity)” value [9] of the same compound?
A: activated NF-κB in 293T cells in a dose-dependent manner

Q: Which “TIFA phosphorylation” value [6] does the source give for Nc1ccn(C2OC(COP(=O)(O)OP(=O)(O)OC3OC(C(O)CO)C(O)C(O)C3O)C(O)C2O)c(=O)n1 (stereo not shown) [CDP-heptose] here?
A: induce TIFA phosphorylation

Q: What about the “NF-κB activation (luciferase reporter activity)” value [9] of the same compound?
A: activated NF-κB in 293T cells in a dose-dependent manner

Q: How did the “TIFA phosphorylation” value [6] turn out when Nc1nc2c(ncn2[C@@H]2O[C@H](COP(=O)(O)OP(=O)(O)O[C@H]3O[C@H]([C@H](O)CO)[C@@H](O)[C@H](O)[C@@H]3O)[C@@H](O)[C@H]2O)c(=O)[nH]1 [GDP-heptose] was run?
A: induce TIFA phosphorylation

Q: What about the “NF-κB activation (luciferase reporter activity)” value [9] of the same compound?
A: activated NF-κB in 293T cells in a dose-dependent manner

Q: O=P(O)(O)OC[C@@H](O)[C@H]1O[C@@H](OP(=O)(O)O)[C@@H](O)[C@@H](O)[C@@H]1O [HBP, D-glycero-β-D-manno Heptose 1,7-bisphosphate, reference compound] was tested. Which “proinflammatory cytokines and chemokines in air pouches (IL-6, TNFα, IP-10, MCP-1/3, IFNγ, GM-CSF, MIP-1α and β, RANTES)” value [2] did it give?
A: did not affect local and systemic productions

Q: What about the “neutrophil recruitment into the air pouch” value [2] of the same compound?
A: failed to increase the number of air-pouch neutrophils

Q: And the “level of GRO-α/KC/CXCL1, IP-10 and MCP-1 in the sera” value [2]?
A: did not affect local and systemic productions

Q: And the “cytokines induction (such as interleukin-8)” value [5]?
A: not

Q: What about the NF-κB activation ([5]; transfected into host cells) of the same compound?
A: NF-κB activation observed

Q: And the “entry into host cytosol on its own” value [10]?
A: cell-impermeable

Q: How did the “TIFA phosphorylation” value [6] turn out when O=c1ccn(C2OC(COP(=O)(O)OP(=O)(O)OC3OC(C(O)CO)C(O)C(O)C3O)C(O)C2O)c(=O)[nH]1 (stereo not shown) [UDP-heptose] was run?
A: induce TIFA phosphorylation

Q: And the “NF-κB activation (luciferase reporter activity)” value [9]?
A: activated NF-κB in 293T cells in a dose-dependent manner

Q: Nc1ncnc2c1ncn2C1CC(O)C(COP(=O)(O)OP(=O)(O)OC2OC(C(O)CO)C(O)C(O)C2O)O1 (stereo not shown) [dADP-heptose] was tested. Which “TIFA phosphorylation” value [6] did it give?
A: induce TIFA phosphorylation

Q: What about the “NF-κB activation (luciferase reporter activity)” value [9] of the same compound?
A: activated NF-κB in 293T cells in a dose-dependent manner

Q: How did the “TIFA phosphorylation” value [6] turn out when Nc1ccn(C2CC(O)C(COP(=O)(O)OP(=O)(O)OC3OC(C(O)CO)C(O)C(O)C3O)O2)c(=O)n1 (stereo not shown) [dCDP-heptose] was run?
A: induce TIFA phosphorylation

Q: What about the “NF-κB activation (luciferase reporter activity)” value [9] of the same compound?
A: activated NF-κB in 293T cells in a dose-dependent manner

Q: Nc1nc2c(ncn2C2CC(O)C(COP(=O)(O)OP(=O)(O)OC3OC(C(O)CO)C(O)C(O)C3O)O2)c(=O)[nH]1 (stereo not shown) [dGDP-heptose] was tested. Which “TIFA phosphorylation” value [6] did it give?
A: induce TIFA phosphorylation

Q: And the “NF-κB activation (luciferase reporter activity)” value [9]?
A: activated NF-κB in 293T cells in a dose-dependent manner

Q: What does the source list for Cc1cn(C2CC(O)C(COP(=O)(O)OP(=O)(O)OC3OC(C(O)CO)C(O)C(O)C3O)O2)c(=O)[nH]c1=O (stereo not shown) [dTDP-heptose]?
A: TIFA phosphorylation (anti-pT9-TIFA immunoblot) [6]: induce TIFA phosphorylation; NF-κB activation (luciferase reporter activity) [9]: activated NF-κB in 293T cells in a dose-dependent manner
